Consider one molecule from patent EP0563345B1, “NOVEL 4-ARYLPIPERAZINES AND 4-ARYLPIPERIDINES” (MCNEILAB, INC., priority 1991, dated 1993).

Series [1] is described as follows: Overall statement on the antipsychotic screens (CAR test and D-2 affinity). Conditions: as far as tested.
Excerpt: (§1) The antipsychotic activity of the compounds of the invention may be determined by the Block of Conditioned Avoidance Responding (Rat) test (CAR), references being Cook, L. and E. Weidley in Ann.
Series [2] deals with Male, Fischer 344 rats. As to the kind of experiment: Block of Conditioned Avoidance Responding (Rat) test (CAR). In outline:
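Trained rats at 90% avoidance ran 60-trial sessions with a 15-sec light/tone conditioned stimulus, then a 0.7 mA shock. Vehicle was given on Day 1 and test compound on Day 2, with matched route and pretreatment time. The % change in CAR versus Day 1 and % escape failures are group means, with escape loss at 5 mg/kg unless noted.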

The target in series [3] is T1, D-2 (dopamine-2) receptors (Rattus norvegicus, UniProt P61169).
T1 construct: The D2 assay employed a P2 fraction from the striatum, the ligand ^3H-spiperone at a concentration of 0.05 nM; from tissue; host or cells: rat striatum, P2 fraction (synaptosomal membranes), male Wistar rats
The series can be described thus: biochemical. Format: binding, male, Wistar rats. Conditions: rat striatum P2 fraction, 3H-spiperone 0.05 nM; read-out: Receptor Binding (Ki nM) D2. As to the method: The dopamine D2 binding activity of compounds was determined using a P2 fraction (synaptosomal membranes) prepared from male, Wistar rats.
The data from this assay were analyzed by calculating the percent inhibition of the binding of the tritiated ligands by given concentrations of the test compound. Kl values, where given, were obtained from the logit analysis of concentration-inhibition curves.

Series [4] can be described thus: Overall statement on the other non-antipsychotic screens. Conditions: screens in which they have been tested to date.
Excerpt: as §1
Series [5] has as its system Male Charles-River rats. The series can be described thus: Rat Glass Bead Test (propulsive motility of the distal colon). The format is in vivo. Particulars: IP, 1.0 mg/kg; mean expulsion time of glass bead.
Description: The rat glass bead test is used to evaluate the action of compounds on propulsive motility of the distal colon. Male Charles-River rats weighing 50-90 grams are fasted for at least 18 hours in individual cages with water provided. Groups of rats are then dosed by the indicated route at the appropriate pretreatment time. A 4 mm glass bead is then inserted 3.5 cm into the distal colon through the anus using a 4 mm diameter glass rod. Rats are then placed in open top glass jars and observed for 60 minutes. The time for expulsion of the bead is noted for each rat. Rats not expelling the bead after 60 minutes are necropsied and the presence of the bead in the colon confirmed. […] Statistical analysis is done using one way analysis of variance and Fisher's LSD comparison. A probability of less than 0.05 is considered to be statistically significant.

T1 sequence (P61169 whole entry): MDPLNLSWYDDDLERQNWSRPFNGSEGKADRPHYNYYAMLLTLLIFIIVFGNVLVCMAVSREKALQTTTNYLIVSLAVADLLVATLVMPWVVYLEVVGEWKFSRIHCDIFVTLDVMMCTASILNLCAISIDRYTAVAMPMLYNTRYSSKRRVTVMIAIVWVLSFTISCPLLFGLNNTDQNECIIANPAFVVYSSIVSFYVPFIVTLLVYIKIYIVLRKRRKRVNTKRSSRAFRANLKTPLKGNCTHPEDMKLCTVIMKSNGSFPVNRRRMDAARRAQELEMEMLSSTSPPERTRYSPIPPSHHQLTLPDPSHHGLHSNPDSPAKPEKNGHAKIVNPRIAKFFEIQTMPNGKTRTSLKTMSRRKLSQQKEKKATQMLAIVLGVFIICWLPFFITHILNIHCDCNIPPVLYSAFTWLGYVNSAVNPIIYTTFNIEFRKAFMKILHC

A word on the Ki: it is a measure of affinity in units of concentration, obtained from inhibition or displacement. Turning to `COc1cccc(OC)c1N1CCN(Cc2cccc(C(=O)N3CCCCC3)c2)CC1` [Compound 48], in series [1], the “potential antipsychotic activity in either of the screens” value is “not exhibited potential antipsychotic activity”. In series [2] (15 mg/kg IP, negative number = blockade of CAR), the “CAR 15 mg/kg IP Administration (% change CAR)” value was -1%. In addition, the “(Escape Loss) % failures to escape” value in series [2] (at CAR 15 mg/kg IP) is 1%. The Ki in series [3] is above 1000 nM. Further, the “activity in any of the other non-antipsychotic screens” value in series [4] is reported as “not exhibited activity”. The “Glass bead expulsion time” value in series [5] stood at 14 min.
